Data reported in BigSolDB 2.1.

Cc1ncc([N+](=O)[O-])n1CCO
solubility (mole fraction)
Conditions	298.15 K	303.15 K	308.15 K	313.15 K	318.15 K	323.15 K	328.15 K	333.15 K
in transcutol	0.0207	0.0227	0.0244	0.0263	0.0283	0.0303	0.033	0.0361
in water	0.00111	0.00119	0.00128	0.00137	0.00147	0.00159	0.0017	0.00182
